Measurements from PMC5004293, “Characterization of FRM-36143 as a new γ-secretase modulator for the potential treatment of familial Alzheimer’s disease” (Alzheimer's Research & Therapy, 2016).
Entries after “also recorded” stand apart in the source; their conditions may differ.

Columns and labels:
[1] = Compound exposure in mice (LC-MS/MS, brain tissue binding); type: in vivo; conditions: mouse
Protocol: (§1) Mice and rats were maintained on 12/12 h light/dark cycle with food available ad libitum. Drug treatment was prepared in a vehicle of 1 % carboxymethylcellulose (CMC):Tween80 (99.5:0.5). Twelve-week-old wild-type male mice (129S6, Taconic Biosciences, Hudson, NY, USA) or rats (Wistar, Charles River Laboratories) were administered compound p.o. without prior fasting and euthanized by CO2 asphyxiation at specified times post-dosing. After extraction of the brain, the olfactory bulb and hindbrain were removed and the cerebral hemispheres separated (mice) or cut in 4 pieces (rats). The cerebellum was removed for bioanalysis of the compound. CSF was collected from the cisterna magna and blood from a cardiac puncture.
Cerebellums were homogenized in a Mini-BeadBeater (Biospec Products, Inc., Bartlesville, OK, USA). Brain samples, plasma, and CSF were prepared for LC-MS/MS by precipitating proteins with acetonitrile and vacuum filtration in the presence of an internal standard. Standards were prepared in the corresponding matrix. FRM-36143 was resolved by HPLC (Shimadzu) using a reverse-phase C18 Kinetex column (30X2.1 mM; Phenomenex, Torrance, CA, USA). Following separation, the column effluent was introduced into a triple quadrupole mass spectrometer (API 5500, Applied Biosystems), optimized for detection of FRM-36143 and using multiple reaction monitoring with mass transition of 390.3 > 215.2.
The unbound fraction in brain homogenate (fu,b) was determined in triplicate in the Rapid Equilibrium Dialysis device (8000 Da molecular weight cut-off membrane, Thermo Scientific/Pierce Biotechnology, Rockford, IL, USA). Briefly, FRM-36143 stock solution (0.1 mg/mL in acetonitrile) was added to fresh mouse brain homogenate (1:4 dilution with PBS) to achieve a final concentration of 1 μg/mL. Aliquots of the brain homogenate (300 μL) were loaded into the donor side, and 500 μL of PBS into the receiver side of the dialyzer. […]

γ-secretase [2] = experiment: Aβ42 ELISA in mouse primary cortical neurons; type: cell-based; conditions: overnight
Protocol: Primary cultures were established from the neocortex of E17 CD1 mouse embryos (Charles River Laboratories, Wilmington, MA, USA). Following tissue dissection and trituration, the cultures were suspended in Neurobasal® medium (Invitrogen, Carlsbad, CA, USA) supplemented with 10 % horse serum (Sigma-Aldrich, St. Louis, MO, USA) and 520 μM L-glutamine. Cells were plated at 50,000 cells/well in 96-well poly-D-lysine-coated plates. Following incubation at 37 °C and 5 % CO2 for 4 h, the plating medium was exchanged with Neurobasal® medium supplemented with 2 % B-27® (Invitrogen), 520 μM of L-glutamine, and 1 % penicillin–streptomycin. […]
Aβ peptide levels were quantified by sandwich ELISA using anti-Aβ38, anti-Aβ40, anti-Aβ42, (BioLegend, Dedham, MA, USA) or anti-Aβ37 for the capture and 4G8-horseradish peroxidase (HRP; BioLegend) for detection. […]
For cell-based assays, freshly collected samples of cultured cell supernatant were added to the plates and incubated at 4 °C for about 24 h. Detection was performed using SureBlue 3,3’,5,5’-tetramethylbenzidine (TMB) peroxidase substrate (KPL, Inc., Gaithersburg, MD, USA) and the plates read on a SpectraMax M5e microplate reader (Molecular Devices, Inc., Sunnyvale, CA, USA). […] EC50 values were calculated from values reported as percentage of DMSO using nonlinear regression, based on a sigmoidal dose–response (variable slope) model.

γ-secretase [3] = experiment: Acute oral treatment of wild-type mice, brain Aβ peptides; type: in vivo, mouse
Protocol: (§2) For in vivo assessment of compound efficacy, brain tissue and cerebrospinal fluid (CSF) were collected, snap frozen in liquid nitrogen, and stored at −80 °C. Brain hemispheres were homogenized in 0.6 % diethylamine (DEA) in 50 mM NaCl containing protease inhibitor cocktail (cOmplete mini, EDTA-free, Roche) using sonication (Branson) at 23 % amplitude for 30 s. Homogenates were spun at 227,000 × g for 25 min at 4 °C. Supernatants were diluted fivefold in PBS-T (0.05 % Tween-20) containing 0.67 % BSA and added to the ELISA plate. For CSF, samples were diluted threefold in the PBS-T/BSA buffer. Detection was performed using the SuperSignal™ ELISA Femto substrate (Thermo Fisher), and luminescence was read on an EnVision plate reader (Perkin Elmer).
as §1

γ-secretase [4] = experiment: Population PK/PD modeling of mouse brain Aβ42 reduction; type: in vivo; conditions: population PK/PD model, mice
Protocol: as §1
A population pharmacokinetic/pharmacodynamic (PK/PD) analysis was performed to obtain maximal efficacy (Emax) and concentration leading to 50 % of Emax (EC50) using the Phoenix® NLME™ (NonLinear Mixed Effect) program (version 6.3, Certara USA, Inc., St. Louis, MO). The goodness of fit was assessed based on visual inspection of curve fitting, Akaike’s information criterion (AIC), and precision of parameter estimation.

γ-secretase [5] = experiment: Acute oral treatment of rats, brain and CSF Aβ peptides; type: in vivo, rat
Protocol: as §2, §1

[6] = WT mice, single oral dose 30 mg/kg, 6 h post-treatment
[7] = mice, time course 0.5-24 h, 30 mg/kg p.o.
[8] = mice, time course, 30 mg/kg p.o.
[9] = rats, 30 mg/kg p.o., 6 h post-dose

- concentration at 6 h ([1]; male, 129S6, brain (unbound), 30 mg/kg oral, 6 h): 0.427 µM
- Unbound brain Cmax ([1]; 10 mg/kg oral): 0.235 µM
- EC50 (γ-secretase [2]): 0.053 µM
- EC50 (γ-secretase [4]; 30 mg/kg, unbound plasma concentration, 2.5–97.5 % CI 4.6–151 nM, read-out: In vivo EC50 for Aβ42): 0.078 µM
Compound: COc1nc(C2=NOC[C@H](c3cc4ccccc4o3)N2)ccc1-n1cnc(C)c1 [FRM-36143, (R)-5-(benzofuran-2-yl)-3-(6-methoxy-5-(4-methyl-1H-imidazol-1-yl)pyridin-2-yl)-5,6-dihydro-4H-1,2,4-oxadiazine]
- Exposure or efficacy at higher dose ([1]; 90 mg/kg vs 30 mg/kg, data not shown): did not achieve significantly higher exposure or efficacy
- Brain Aβ37 increase vs vehicle (γ-secretase [3]; [6]): 3.2 fold
- Brain Aβ42 reduction vs vehicle (γ-secretase [3]; [6]): 43%
- Calculated AUC0→24h of brain Aβ40 reduction (γ-secretase [3]; mice, 30 mg/kg p.o.): 31%
- Calculated AUC0→24h of brain Aβ42 reduction (γ-secretase [3]; mice, 30 mg/kg p.o.): 34%
- Peak reduction of brain Aβ40 (γ-secretase [3]; [7]): 40%
- Peak reduction of brain Aβ42 (γ-secretase [3]; [7]): 45%
- Change of brain Aβ37 and Aβ38 (γ-secretase [3]; mice, time course, 10 mg/kg p.o.): induced an increase in Aβ37 and Aβ38
- Reduction of brain Aβ40 and Aβ42 (γ-secretase [3]; mice, time course, 10 mg/kg p.o., 10 mg/kg): did not reduce Aβ40 and Aβ42 to a great extent; also recorded: did not observe any efficacy
- Peak increase of brain Aβ37 (γ-secretase [3]; [8]): 3.1 fold
- Peak increase of brain Aβ38 (γ-secretase [3]; [8]): 2 fold
- Maximal brain Aβ42 reduction (Emax) (γ-secretase [4]; 30 mg/kg data): 51%
- Emax for effect on brain Aβ42 (γ-secretase [4]; 30 mg/kg data only, CV: 15 %): 0.51
- Aβ42 reduced to % of the baseline in rat cerebrospinal fluid (γ-secretase [5]; rat CSF): 58%
- Brain Aβ37 increase vs vehicle (γ-secretase [5]; [9]): 2.5 fold
- Brain Aβ42 reduction vs vehicle (γ-secretase [5]; [9]): 30%
- CSF Aβ42 reduction vs vehicle (γ-secretase [5]; [9]): 58%
- CSF Aβ37 increase vs vehicle (γ-secretase [5]; rats, 30 mg/kg p.o., 6 h post-dose, vehicle values close to detection limit): 20 fold
